Measurements reported in US5843889A, “Glycopeptide antibiotic derivatives” (Eli Lilly and Company, priority 1997, dated 1998).
≈ marks a conversion by molar mass, not a printed value.

What was measured:
Format in all cases: cell-based
[1] = tested on: Entercoccus gallinarum 245; assay: MIC, standard broth micro-dilution assay
Procedure: (§1) The formula I compounds have in vitro and in vivo activity against Gram-positive pathogenic bacteria. The MIC's were determined using a standard broth micro-dilution assay.

Entercoccus faecalis 276 = assay: MIC, standard broth micro-dilution assay
Procedure: as §1

[2] = tested on: Entercoccus faecalis 2041; assay: MIC, standard broth micro-dilution assay
Procedure: as §1

Pediococcus pentosaceus = assay: MIC, agar dilution on brain-heart infusion agar; conditions: Pediococcus pentosaceus (mean of 2)
Lactobacillus confusus = assay: MIC, agar dilution on brain-heart infusion agar
[3] = tested on: Leuconostoc mesenteroides; assay: MIC, agar dilution on brain-heart infusion agar; conditions: Leuconostoc mesenteroides (mean of 4)
Pedicoccus acidilacti = assay: MIC, agar dilution on brain-heart infusion agar; conditions: Pedioccccus acidilacti (mean of 10)
[4] = tested on: Leuconostoc pseudomesenteroides; assay: MIC, agar dilution on brain-heart infusion agar
Leuconostoc citreum = assay: MIC, agar dilution on brain-heart infusion agar
Leuconostoc lactis = assay: MIC, agar dilution on brain-heart infusion agar; conditions: Leuconostoc lactis (mean of 2)
[5] = tested on: Streptococcus pyogenes C203; assay: MIC, standard broth micro-dilution assay
Procedure: The MIC's were determined using a standard broth micro-dilution assay.

Row | Compound | MIC [1] [µg/mL] | MIC (Entercoccus faecalis 276) [µg/mL] | MIC [2] [µg/mL] | MIC (Pediococcus pentosaceus) [µg/mL] | MIC (Lactobacillus confusus) [µg/mL] | MIC [3] [µg/mL] | MIC (Pedicoccus acidilacti) [µg/mL] | MIC [4] [µg/mL] | MIC (Leuconostoc citreum) [µg/mL] | MIC (Leuconostoc lactis) [µg/mL] | MIC [5] [µg/mL]
1 | CNC(CC(C)C)C(=O)NC1C(=O)NC(CC(N)=O)C(=O)NC2C(=O)NC3C(=O)NC(C(=O)NC(C(=O)O)c4cc(O)cc(O)c4-c4cc3ccc4O)C(OC3CC(C)(N)C(O)C(C)O3)c3ccc(c(Cl)c3)Oc3cc2cc(c3OC2OC(CO)C(O)C(O)C2OC2CC(C)(NCc3ccc(OCc4ccccc4)cc3)C(O)C(C)O2)Oc2ccc(cc2Cl)C1O (stereo not shown) [Compound 5, 4-benzyloxybenzyl] | ≤ 0.06 | ≤ 0.06 | ≤ 0.06 | 8.0 (≈ 4.47 µM) | 16 (≈ 8.95 µM) | 8 (≈ 4.47 µM) | 2.8 (≈ 1.57 µM) | 16 (≈ 8.95 µM) | 64 (≈ 35.8 µM) | 8.0 (≈ 4.47 µM) | –
2 | CCCCCCCCCCCCOc1ccc(CNC2(C)CC(OC3C(Oc4c5cc6cc4Oc4ccc(cc4Cl)C(OC4CC(C)(N)C(O)C(C)O4)C4NC(=O)C(NC(=O)C6NC(=O)C(CC(N)=O)NC(=O)C(NC(=O)C(CC(C)C)NC)C(O)c6ccc(c(Cl)c6)O5)c5ccc(O)c(c5)-c5c(O)cc(O)cc5C(C(=O)O)NC4=O)OC(CO)C(O)C3O)OC(C)C2O)cc1 (stereo not shown) [Compound 10, 4-dodecyloxybenzyl] | 8 (≈ 4.29 µM) | 18 (≈ 9.64 µM) | – | – | – | – | – | – | – | – | 0.5 (≈ 0.268 µM)
3 | CNC(CC(C)C)C(=O)NC1C(=O)NC(CC(N)=O)C(=O)NC2C(=O)NC3C(=O)NC(C(=O)NC(C(=O)O)c4cc(O)cc(O)c4-c4cc3ccc4O)C(OC3CC(C)(N)C(O)C(C)O3)c3ccc(c(Cl)c3)Oc3cc2cc(c3OC2OC(CO)C(O)C(O)C2OC2CC(C)(NCc3ccc(Oc4ccccc4)cc3)C(O)C(C)O2)Oc2ccc(cc2Cl)C1O (stereo not shown) [Compound 4, p-phenoxybenzyl.cndot.A82846B] | ≤ 0.06 | ≤ 0.06 | ≤ 0.06 | 16 (≈ 9.02 µM) | 32 (≈ 18 µM) | 16 (≈ 9.02 µM) | 7.5 (≈ 4.23 µM) | 32 (≈ 18 µM) | – | 16 (≈ 9.02 µM) | –
4 | CNC(CC(C)C)C(=O)NC1C(=O)NC(CC(N)=O)C(=O)NC2C(=O)NC3C(=O)NC(C(=O)NC(C(=O)O)c4cc(O)cc(O)c4-c4cc3ccc4O)C(OC3CC(C)(N)C(O)C(C)O3)c3ccc(c(Cl)c3)Oc3cc2cc(c3OC2OC(CO)C(O)C(O)C2OC2CC(C)(NCc3ccc(-c4ccccc4)cc3)C(O)C(C)O2)Oc2ccc(cc2Cl)C1O (stereo not shown) [Compound 2, p-phenylbenzyl.cndot.A82846B] | ≤ 0.06 | 0.5 (≈ 0.284 µM) | – | 11 (≈ 6.25 µM) | 16 (≈ 9.1 µM) | 16 (≈ 9.1 µM) | 5.9 (≈ 3.35 µM) | 32 (≈ 18.2 µM) | – | 4.0 (≈ 2.27 µM) | –
5 | CN[C@H](CC(C)C)C(=O)N[C@H]1C(=O)N[C@@H](CC(N)=O)C(=O)N[C@H]2C(=O)N[C@H]3C(=O)N[C@H](C(=O)N[C@H](C(=O)O)c4cc(O)cc(O)c4-c4cc3ccc4O)[C@H](O)c3ccc(c(Cl)c3)Oc3cc2cc(c3O[C@@H]2O[C@H](CO)[C@@H](O)[C@H](O)[C@H]2O[C@H]2C[C@](C)(N)[C@H](O)[C@H](C)O2)Oc2ccc(cc2Cl)[C@H]1O [vancomycin, reference compound] | 4 (≈ 2.76 µM) | 1 (≈ 0.69 µM) | 2 (≈ 1.38 µM) | 1024 (≈ 707 µM) | 1024 (≈ 707 µM) | 1024 (≈ 707 µM) | 891 (≈ 615 µM) | > 1024 | > 1024 | 1024 (≈ 707 µM) | –
6 | CNC(CC(C)C)C(=O)NC1C(=O)NC(CC(N)=O)C(=O)NC2C(=O)NC3C(=O)NC(C(=O)NC(C(=O)O)c4cc(O)cc(O)c4-c4cc3ccc4O)C(OC3CC(C)(N)C(O)C(C)O3)c3ccc(c(Cl)c3)Oc3cc2cc(c3OC2OC(CO)C(O)C(O)C2OC2CC(C)(NCc3ccc(Sc4ccccc4)cc3)C(O)C(C)O2)Oc2ccc(cc2Cl)C1O (stereo not shown) [Compound 108, 4-thiophenylbenzyl] | ≤ 0.06 | 0.5 (≈ 0.279 µM) | ≤ 0.06 | 23 (≈ 12.8 µM) | 16 (≈ 8.93 µM) | 10 (≈ 5.58 µM) | 12 (≈ 6.7 µM) | 32 (≈ 17.9 µM) | – | 8.0 (≈ 4.47 µM) | –
